Test results reported in US20160355465A1, “NOVEL MODIFIED CURCUMINS AND THEIR USES” (THE RESEARCH FOUNDATION OF STATE UNIVERSITY OF NEW YORK, priority 2011, published 2016).

Experiments:
MMP-7 = molecular target: T1, MMP-7 (Homo sapiens, UniProt P09237); assay: fluorimetric assay of MMP activity; format: biochemical; settings: synthetic fluorescent peptide substrate Mca-Lys-Pro-Leu-Gly-Leu-Dpa-Ala-Arg-NH2
T1 sequence (P09237 95-267): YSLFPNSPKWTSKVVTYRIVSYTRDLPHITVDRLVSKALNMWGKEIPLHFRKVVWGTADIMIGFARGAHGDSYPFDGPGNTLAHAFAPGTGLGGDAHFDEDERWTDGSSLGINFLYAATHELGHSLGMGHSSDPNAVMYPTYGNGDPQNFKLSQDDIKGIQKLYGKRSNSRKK

skin wounds = assay: healing of 6 mm skin wounds in streptozotocin-diabetic rats, clinical wound diameter; format: in vivo, rat; settings: 7 days
Procedure: Three weeks after inducing diabetes, the back skin of all the rats was shaved and a series of 6 standard wounds per rat, each 6 mm in diameter, was made using a surgical trephine.
A finely-ground sample (0.1 g) of Compound 4 [4-(phenylaminocarbonyl)-1,7-bis(4-hydroxyphenyl)hepta-1e,6e-diene-3,5-dione] was added to petrolatum jelly (9 g) and the mixture was homogenized for 15 minutes at 25° C., then allowed to settle for 5 minutes. This procedure was repeated nine times, producing a homogeneous product having a cream-like consistency. This was then used in topical application to wounds.
The following five experimental groups (n=3 rats per group) were established: Non-diabetic control rats (NDC) treated by daily application of white petrolatum jelly (“vehicle”) for 7 days, diabetic rats (D group) treated daily with vehicle alone; diabetics treated by daily topical application of either a 1% (D+1%) or a 3% (D+3%) suspension of Compound 4 in the vehicle; and diabetics treated systemically by daily oral intubation of a 1 ml suspension of Compound 4 (in carboxymethylcellulose) at a dose of 30 mg/kg over the 7-day treatment protocol (D+30 mg/kg). At the end of this time period, the circular wounds were clinically assessed by measuring diameter of the wound in millimeters, blood samples were collected, the rats were sacrificed, and skin samples collected for histological/histochemical, and biochemical assessment as described below. • 1) On day 7 after inducing wound healing, the animals were anesthetized and blood samples collected for blood glucose (one Touch Ultra Glucometer; Johnson & Johnson, New Brunswick, N.J.) and Hemoglobin A1c (A1c Now+; Bayer Health Care, Sunnyvale, Calif.) measurements. • 2) Photographs were taken for clinical observations to assess wound closure. The % reduction of the wound surface was calculated by measuring the diameter (in millimeters) of each wound before and after the treatment protocol. • 3) Wound tissues on day 7 were excised from 3 sites per rat and pooled for biochemical analysis. […]

IL-6 = assay: cytokine production by peritoneal macrophages of orally treated diabetic rats in culture; format: in vivo, rat; settings: oral 30 mg/kg daily, 21 days, culture with or without P. gingivalis LPS
Procedure: (§1) Adult male Sprague-Dawley rats (body weight 300-350 g) were injected through the tail vein with either 0.9% saline (non-diabetic control) or with the same solution containing streptozotocin (70 mg/kg body weight) to induce diabetes. Non-diabetic rats served as normal controls. The diabetic rats were distributed into 2 experimental groups (3 rats per group). Urine glucose levels were measured weekly with Tes-Tape (Eli Lilly Inc.). One group of rats was treated by oral gavage of Compound 4 (30 mg/kg body weight) daily for 21 days; the Compound 4 was suspended in 2% carboxymethyl cellulose and polytron/homogenized. The normal & diabetic vehicle-treated (control) groups were oral gavaged with vehicle alone daily.
(§2) Rat peritoneal macrophages were harvested with 10 ml RPMI 4 days after intraperitoneal injection of 10 ml of thioglycolate (3% wt/vol). Macrophages were then purified by density gradient centrifugation (lymphoprep) and cell numbers were counted in a hemocytometer. The cells were then tested in a cell migration assay (Cell BioLabs, Inc, CytoSelect 96-well with 5 um fluorometric format) using conditioned medium containing inflammatory mediators including MCP-1 from LPS-macrophages as a chemoattractant. The macrophages from different groups of rats were also plated onto 24 well-plates with and without p.g.LPS challenge for 24 hours in 37° C., 5% CO2. […]

peritoneal macrophages = assay: cell migration (chemotaxis) assay of peritoneal macrophages; format: in vivo, rat; settings: diabetic rats, oral 30 mg/kg daily, 21 days
Procedure: as §1, §2

[1] = blood glucose of the rats of the collagen experiment; format: in vivo, rat; settings: diabetic rats
mosquito bites = mosquito bites on the arms of a human subject, topical; format: in vivo; settings: Example 9
From the text: Mosquitoes are presented with and allowed to bite the left and right arms of a human subject.

O=C(/C=C/c1ccc(O)cc1)C(C(=O)/C=C/c1ccc(O)cc1)C(=O)Nc1ccccc1 [Compound 4, 1,7-Bis(4-hydroxyphenyl)-4-N-phenylaminocarbonylhepta-1E, 6E-dien-3,5-dione]
IC50 (MMP-7): 5 ± 0.7 µM
reduction in wound diameter (skin wounds; 1% topical in petrolatum jelly, daily, non-diabetic control 30%): 35%
wound healing (in words) (skin wounds; 3% topical, daily): significant increase in wound healing over that of the untreated diabetic control
wound healing (in words) (skin wounds; systemic, oral 30 mg/kg daily): returned wound healing characteristics to that seen in the non-diabetic control group
IL-6 production by peritoneal macrophages (IL-6): decreased excessive inflammatory cytokine
macrophage chemotactic activity (peritoneal macrophages): counteracted the suppression of macrophage chemotactic activity
Blood Glucose ([1]; 0.25% topical): 538 mg/dL
Blood Glucose ([1]; 1% topical): 545 mg/dL
itching and healing of mosquito bites compared with Compound 2 (mosquito bites): stop itching sooner and heal quicker
